Reference: PMC12136240 (Cell chemical biology, 2024)
Blank lines part the entries; values can stand above or below the molecule they belong to.

How the values were obtained:
[1] = system: zinc-finger (ZF) degrons fused to GFP in U2OS cells; assay: Off-target degradation of ZF degrons by flow cytometry; format: cell-based; details: 32 nM to 20 μM, 24 h
[2] = target: GSPT1-GFP in HEK293T cells (Homo sapiens, UniProt P15170); assay: Off-target degradation of GSPT1 by flow cytometry; format: cell-based; details: 24 h
[3] = target: BRD4(BD2)-GFP in HEK293T cells (Homo sapiens, UniProt O60885+Q96SW2); assay: TR-FRET quantification of BRD4; details: for DC50: read-out: DC50(BD2), HEK293T BRD4(BD2)-GFP reporter cells, 4 h
[4] = target: BRD4(BD1)-GFP in HEK293T cells (Homo sapiens, UniProt O60885+Q96SW2); assay: TR-FRET quantification of BRD4; details: for DC50: read-out: DC50(BD1), HEK293T BRD4(BD1)-GFP reporter cells
[5] = target: endogenous BRD4 in MDA-MB-231 cells (Homo sapiens, UniProt O60885); format: cell-based; details: 5 h (Fig. 3b)
BRD4 in HEK293T cells = BRD4 in HEK293T cells (Homo sapiens, UniProt O60885); assay: BRD4 degradation assay, western blot; format: cell-based; details: 4 h, 100 nM–10 μM dose-response
His6-CRBN/DDB1 = His6-CRBN/DDB1 (Homo sapiens, UniProt Q96SW2); assay: TR-FRET ligand displacement assay; format: binding; details: for fold difference in KD between POM and POM-cN: monofunctional compounds, POM binds more tightly
[6] = target: His6-CRBN/DDB1–GST-BRD4(BD1) ternary complex (Homo sapiens, UniProt O60885+Q96SW2); assay: TR-FRET off-rate measurement of the ternary complex, BD1; format: binding; details: BRD4 dissociation triggered by excess JQ1
BRD4 BD2 bromodomain = details: read-out: KD for BD2; cited from earlier work
BRD4 BD1 bromodomain = details: read-out: KD for BD1; cited from earlier work
[7] = system: His6-CRBN/DDB1 in the presence of GST-BRD4(BD2); assay: TR-FRET ternary complex / cooperativity assay with 1 μM BD2; format: binding; details: Alpha = KD,CRBN[binary]/KD,CRBN[ternary]
[8] = system: His6-CRBN/DDB1 in the presence of GST-BRD4(BD1); assay: TR-FRET ternary complex / cooperativity assay with 1 μM BD1; format: binding; details: Alpha = KD,CRBN[binary]/KD,CRBN[ternary]

Dmax, off-target degradation of GSPT1 [2]: ≤ 1%
SMILES: Cc1sc2c(c1C)C(c1ccc(Cl)cc1)=N[C@@H](CC(=O)Nc1ccc(OCCOCCOCCOCCNc3cccc4c3C(=O)N(C3CCC(=O)NC3=O)C4=O)cc1)c1nnc(C)n1-2 (stereo partly drawn) [ARV-825]
degradation of C2H2 zinc finger targets including IKZF3 and ZFP91, in words [1]: fast and rapid degradation

DC50 [3]: 78 nM
DC50 ([4]; 4 h): 41 nM
endogenous BRD4 degradation potency, in words [5]: one of the most potent BRD4 degraders
SMILES: Cc1sc2c(c1C)C(c1ccc(Cl)cc1)=N[C@@H](CC(=O)NCCCCCCCCC(=O)N[C@@H](C)C(=O)N[C@H]1CCC(=O)NC1=O)c1nnc(C)n1-2 [JQ1-AcQ]

Kd (His6-CRBN/DDB1; read-out: KD against His6-CRBN/DDB1 (binary), competition binding with Thal-FITC): < 100 nM
SMILES: Cc1sc2c(c1C)C(c1ccc(Cl)cc1)=N[C@@H](CC(=O)NCCCCCCCCC(=O)N[C@@H](Cc1ccccc1)C(=O)N[C@H]1CC(=O)NC1=O)c1nnc(C)n1-2 [JQ1-FcN]
BRD4 degradation, western blot, in words (BRD4 in HEK293T cells): efficient degradation of BRD4 at a concentration of 100 nM

time to reach maximum level of degradation (Dmax), BRD4(BD2) ([3]; HEK293T BRD4(BD2)-GFP cells): 3 h
DC50 [3]: 513 nM
time to reach maximum level of degradation (Dmax), BRD4(BD1) ([4]; HEK293T BRD4(BD1)-GFP cells): 1.5 h
fold difference in DC50 between BD1 and BD2 ([4]; HEK293T reporter cells, 4 h, more potent on BD1): 5–10 fold
DC50 ([4]; 4 h): 103 nM
stability of the ternary complex with BRD4(BD1), in words [6]: most stable and long-lived complexes
SMILES: Cc1sc2c(c1C)C(c1ccc(Cl)cc1)=N[C@@H](CC(=O)NCCCCCCCCC(=O)N[C@@H](Cc1ccc(O)cc1)C(=O)N[C@H]1CCC(=O)NC1=O)c1nnc(C)n1-2 [JQ1-YcQ]

SMILES: Cc1sc2c(c1C)C(c1ccc(Cl)cc1)=N[C@@H](CC(=O)OC(C)(C)C)c1nnc(C)n1-2 [JQ1]
Kd (BRD4 BD2 bromodomain): 90 nM
Kd (BRD4 BD1 bromodomain): 50 nM

SMILES: Nc1cccc2c1C(=O)N(C1CCC(=O)NC1=O)C2=O (stereo not drawn) [POM, pomalidomide]
fold difference in KD between POM and POM-cN (His6-CRBN/DDB1): ~ 500 fold

fold difference in KD between POM and POM-cN (His6-CRBN/DDB1): ~ 500 fold
SMILES: Nc1cccc2c1C(=O)N(C1CC(=O)NC1=O)C2=O (stereo not drawn) [POM-cN]

SMILES: Cc1sc2c(c1C)C(c1ccc(Cl)cc1)=N[C@@H](CC(=O)NCCCCCCCCNC(=O)COc1cccc3c1C(=O)N(C1CCC(=O)NC1=O)C3=O)c1nnc(C)n1-2 (stereo partly drawn) [dBET6]
Dmax, off-target degradation of ZF degrons [1]: ≈ 6%
cooperativity with BRD4(BD2), in words [7]: negative cooperativity
cooperativity with BRD4(BD1), in words [8]: negative cooperativity
Dmax, off-target degradation of GSPT1 [2]: ≤ 9%
